PubChem BioAssay (NCI)
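Growth conditions: 96-well plates. Treatment: test compound, 48 hours, 5 concentrations. Analysis: linear interpolation between bracketing concentrations; unreached endpoints set to highest concentration. TGI marks complete inhibition of growth.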

Legend:
Experiment in all cases: NCI-60 cell line screen, 48 h
[1] = tested on: SK-MEL-5 melanoma
[2] = tested on: U251 CNS
[3] = tested on: A498 renal
[4] = tested on: COLO 205 colon
[5] = tested on: UO-31 renal
[6] = tested on: OVCAR-3 ovarian
[7] = tested on: HOP-18 NSCLC
[8] = tested on: SNB-19 CNS
[9] = tested on: SK-OV-3 ovarian
[10] = tested on: KM12 colon
[11] = tested on: OVCAR-8 ovarian
[12] = tested on: SF-295 CNS
[13] = tested on: K-562 leukemia
[14] = tested on: NCI-H226 lung
[15] = tested on: HOP-92 NSCLC
[16] = tested on: LOX IMVI melanoma
[17] = tested on: RPMI-8226 leukemia
[18] = tested on: UACC-62 melanoma
[19] = tested on: CCRF-CEM leukemia
[20] = tested on: SN12C renal
[21] = tested on: SF-539 CNS
[22] = tested on: DLD-1 colon
[23] = tested on: MOLT-4 leukemia
[24] = tested on: HCC-2998 colon
[25] = tested on: SK-MEL-28 melanoma
[26] = tested on: HT29 colon
[27] = tested on: HCT-116 colon
[28] = tested on: M19-MEL melanoma
[29] = tested on: RXF 393 renal
[30] = tested on: DMS 273 small cell lung
[31] = tested on: OVCAR-5 ovarian
[32] = tested on: MCF7 breast
[33] = tested on: SN12K1 renal
[34] = tested on: KM20L2 colon
[35] = tested on: IGROV1 ovarian
[36] = tested on: A549 NSCLC
[37] = tested on: HOP-62 NSCLC
[38] = tested on: HL-60(TB) leukemia
[39] = tested on: OVCAR-4 ovarian
[40] = tested on: EKVX NSCLC
[41] = tested on: SF-268 CNS
[42] = tested on: NCI-H23 lung
[43] = tested on: NCI-H460 lung
[44] = tested on: SNB-78 CNS
[45] = tested on: CAKI-1 renal
[46] = tested on: NCI/ADR-RES ovarian
[47] = tested on: XF 498 CNS
[48] = tested on: SNB-75 CNS
[49] = tested on: HCT-15 colon
[50] = tested on: DMS 114 small cell lung
[51] = tested on: UACC-257 melanoma
[52] = tested on: SK-MEL-2 melanoma
[53] = tested on: SW-620 colon
[54] = tested on: SR leukemia
[55] = tested on: RXF-631 renal
[56] = tested on: 786-0 renal
[57] = tested on: TK-10 renal
[58] = tested on: M14 melanoma
[59] = tested on: NCI-H522 lung
[60] = tested on: ACHN renal
[61] = tested on: MALME-3M melanoma
[62] = tested on: LXFL 529 NSCLC

Measured: TGI

CCOC(=O)c1cc(Cl)ccc1OC(N)=O
> 100 µM: [1] | [2] | [3] | [4] | [5] | [6] | [7] | [8] | [9] | [10] | [11] | [12] | [13] | [14] | [15] | [16] | [17] | [18] | [19] | [20] | [21] | [22] | [23] | [24] | [25] | [26] | [27] | [28] | [29] | [30] | [31] | [32] | [33] | [34] | [35] | [36] | [37] | [38] | [39] | [40] | [41] | [42] | [43] | [44] | [45] | [46] | [47] | [48] | [49] | [50] | [51] | [52] | [53]

COC(=O)C1CCc2nnc(-c3cccnc3)n21 (stereo not given)
> 100 µM: [54] | [55] | [1] | [2] | [3] | [56] | [4] | [5] | [6] | [7] | [57] | [8] | [9] | [10] | [11] | [13] | [14] | [17] | [18] | [19] | [20] | [21] | [22] | [23] | [24] | [25] | [27] | [58] | [59] | [28] | [29] | [30] | [60] | [34] | [35] | [36] | [37] | [38] | [39] | [40] | [41] | [43] | [44] | [61] | [45] | [48] | [49] | [62] | [50] | [51] | [52] | [53]
